One series concerns mice. It counts as in vivo. The source says: Male mice between the ages of 16-24 weeks were anesthetized with isoflurane (induction 4-5 vol %; maintenance 1-2 vol %), intubated with a 20G plastic IV catheter, and mechanically ventilated using a rodent ventilator (Inspira, volume-controlled, Harvard Apparatus, MA). ECG and rectal temperature were continuously monitored using a PC-based recording device (PowerLab 8/30, ADInstruments, Colorado Springs, Colo.). The animals were positioned in a right lateral decubital position on a heating pad and rectal temperature was maintained at 37° C. throughout the experiment. A PE-10 catheter was inserted into the left jugular vein for intravenous drug infusion. Using a dissecting microscope, a left-sided thoracotomy was performed in the 4th intercostal space. […] A ligature (8-0 Monosof MV-135-4, ⅜ 5 mm tapered needle, Syneture, Norwalk, Colo.) was placed around the left coronary artery (LCA) approximately 2 mm distal to the left atrial margin. The suture was fed through a short section of PE-10 tubing to form a snare to allow temporary occlusion. The LCA was occluded for 40 minutes; occlusion was confirmed by persistent ECG changes during occlusion and visual paling of the left ventricle (LV). After 40 minutes the snare was released and reperfusion was confirmed with visual hyperemia of the LV and return of the ECG changes. After 2 hours of reperfusion the LCA was re-occluded and fluorescent polymer microspheres (0.4% solution, diameter 1-10 μm; Duke Scientific Corporation, Palo Alto, Calif.) were infused via needle puncture of the LV apex. […] Heart was then excised, rinsed in normal saline, and the right and left atria were removed under the dissecting microscope. The remaining left and right ventricles were weighed and then sliced into seven sections (d=1 mm) for imaging and staining.
Heart sections were immediately photographed with a digital camera (Canon Powershot A620) under UV light for determination of AAR. Infarct size (I) was determined by staining the heart sections in 1% 2,3,5 triphenyltetrazolium chloride (TTC) in phosphate buffer at pH 7.4 for 10 minutes, followed by 10% neutral buffered formalin (NBF) bath overnight. Pictures were taken the next day under full spectrum light. TTC stained non-infarcted myocardium red, while infarcted myocardium remained white. Both AAR and I areas were calculated in a blinded fashion using standard imaging software (Photoshop Elements 4). A calibration ruler was present in each picture to convert pixels into volume. TTC slices were volume corrected for dehydration following formalin immersion.
The 14,15-EET was obtained from BIOMOL (Plymouth Meeting, Pa.). It was dissolved in a vehicle composed of 100% ethanol and saline (1:3), resulting in a final ethanol solution of 25%. […] SNC-162, a non-peptide δ-opioid receptor agonist, was used for comparison of the magnitude of cardioprotection found within the epoxide pathway. SNC-162 (0.1 μg/g iv over 10 minutes) was dissolved in 10% DMSO.

Series [1] can be described thus: AUDA-BE and its metabolites measured in brain tissue. The class given is in vivo, mice. From the text: This concentration was also biologically effective in lowering blood pressure in hypertensive model (Imig et al. (2005) Hypertension 46:975-81). Therefore, in these experiments, the levels of sEH inhibitors in the blood are in the concentration range expected to inhibit the enzyme.

The subject of the next series is epoxide hydrolase. Nature of the series: Hydrolase activity in brain tissue ex vivo, conversion of 14,15-EET to 14,15-DHET (ELISA). It counts as biochemical, mouse. The note with it: both WT and KO brain tissue. On the procedure: Total 14,15-DHET in blood was measured with a commercial ELISA (Detroit R&D, Inc, Detroit, Mich.) (Koerner et al. (2007) J. Neurosci., 27:4642-4649). Briefly, plasma lipids were extracted 3 times with ethyl acetate under acidic conditions (pH 3 to 4), followed by saponification with 20% KOH. Samples were dried and resuspended in methanol, and 14,15-DHET concentration was measured according to the manufacturer's instructions. The ELISA was also used to measure hydrolase activity in brain tissue (perfused to remove blood) incubated with 1 μM 14,15-EET for 30 minutes. Brian tissue was homogenized in 4 volumes of ice-cold buffer (20 mmol/L Tris HCL pH 7.4, 0.32 mol/L sucrose, 1 mmol/L EDTA), centrifuged at 1000 g for 10 minutes, and supernatant was further centrifuged at 10,000 g for 20 minutes.

Series [2] addresses T1, soluble epoxide hydrolase (Mus musculus, UniProt P34914).
T1 construct: from tissue; host or cells: mouse brain (C57Bl/6), cytosolic or peroxisomal fractions
T1 sequence (P34914 1-554): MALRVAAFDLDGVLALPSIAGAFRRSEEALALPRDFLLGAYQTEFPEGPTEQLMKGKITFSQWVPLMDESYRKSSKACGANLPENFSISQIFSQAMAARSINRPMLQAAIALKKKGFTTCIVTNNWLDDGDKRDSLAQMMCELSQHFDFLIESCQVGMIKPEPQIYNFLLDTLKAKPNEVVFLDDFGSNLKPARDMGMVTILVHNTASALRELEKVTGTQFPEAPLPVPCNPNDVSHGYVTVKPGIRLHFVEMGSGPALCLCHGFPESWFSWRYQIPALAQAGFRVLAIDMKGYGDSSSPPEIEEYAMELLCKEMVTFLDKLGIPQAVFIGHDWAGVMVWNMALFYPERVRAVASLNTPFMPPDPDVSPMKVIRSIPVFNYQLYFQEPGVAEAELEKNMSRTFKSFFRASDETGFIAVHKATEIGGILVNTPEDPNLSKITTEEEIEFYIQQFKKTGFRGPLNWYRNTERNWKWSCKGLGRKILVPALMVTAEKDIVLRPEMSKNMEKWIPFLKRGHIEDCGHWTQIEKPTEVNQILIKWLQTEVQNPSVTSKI
Nature of the series: Soluble epoxide hydrolase activity assay in brain after systemic AUDA-BE ([3H]-tDPPO substrate). It counts as in vivo. On the procedure: Rate of hydration of tDPPO is determined by liquid scintillation spectroscopy after differential extraction of the epoxide and diol. Briefly, cytosolic or peroxisomal fractions were incubated at 37° C. in 100 μL incubation mixtures containing sodium phosphate buffer (90 mmol/L, pH 7.4) and tDPPO (1 to 50 μmol/L in 1 μL dimethylformamide). Incubations were stopped after 5 minutes with the addition of 60 μL methanol and 200 μL isooctane. Zero-time and zero-protein incubations served as blanks. Incubations were vortexed vigorously to extract the substrate into the isooctane (the diol metabolite remains in the aqueous phase). A known aliquot of the aqueous phase was removed and added to 1 mL scintillation cocktail for scintillation counting. Extraction efficiency exceeded 91%.
It should be noted that these sEH inhibitors are reversible transition state inhibitors. Thus, the levels of inhibition are certain to be above those detected due to dilution of the sample during work up.

The values below come from patent US20090069418A1, “Compositions and Methods for the Treatment of Disorders Associated with Aberrant Vasodilation” (priority 2007, published 2009).

Molecules are shown by their SMILES. Where two headings read alike, the source gives them in different places.

Broadly, the inhibition is the percentage by which the read-out fell short of the control. As to `CCCCOC(=O)CCCCCCCCCCCNC(=O)NC12CC3CC(CC(C3)C1)C2` [AUDA-BE, 12-(3-adamantane-1-yl-ureido)-dodecanoic acid butyl ester], the figures for the “Infarct Volume” value with mice (PRO (given prior to reperfusion)) and in the series on mice (given prior to LCA occlusion (PRE)) were 15 ± 3 mm^3 and 12 ± 2 mm^3, respectively. The “infarct size after myocardial I/R compared to vehicle” value in the series with mice (given before ischemia or before reperfusion) was “significantly reduced infarct size”. The “levels detected in homogenates of brain tissue” value in series [1] (after AUDA-BE injection, methanol/chloroform extraction) is reported as “not”. The “crossing the blood brain barrier (BBB)” value in series [1] (mouse, in vivo) is on record as “capable of crossing the blood brain barrier”. In the series with epoxide hydrolase, the “metabolism of 14,15-EET to 14,15-DHET in brain tissue” value was “inhibited”. In series [2] (AUDA-BE 10 mg/kg intraperitoneally, 1, 3, 6 and 24 hours, vehicle 1.92±0.06 nmol/mg), the “average brain sEH activity over 24 hours” value worked out at 1.56±0.13 nmol/mg protein. In series [2] (mouse, ip, read-out: inhibition of brain sEH activity), the inhibition at 10 mg/kg was at least 20%.
